Experiments:
[1] = cited from earlier work; for aqueous solubility: at room temperature, known values
Water content by TG-FTIR = settings: sample according to Example 1; relative humidity of about 35%
Procedure: Thermogravimetric measurements were carried out with a Netzsch Thermo-Microbalance TG 209 coupled to a Bruker FTIR Spectrometer Vector 22 (sample pans with a pinhole, N2 atmosphere, heating rate 10 K/min).
This value was determined by TG-FTIR at a relative humidity of about 35%. This sample was examined by dynamic water vapor sorption analysis (DVS) within the relative humidity range from 0 to 95% r.h. DVS measurements were conducted as described above.
(§1) This sample was examined by dynamic water vapor sorption analysis (DVS) within the relative humidity range from 0 to 95% r.h. DVS measurements were conducted as described above.

[2] = Hygroscopicity by dynamic water vapor sorption analysis (DVS)
Procedure: DVS measurements were conducted as follows: The sample was placed on an aluminum holder on top of a microbalance and allowed to equilibrate at 50% RH before starting the pre-defined humidity program:
(1) two hours kept at 50% constant relative humidity (RH) then
(2) raised RH to 95% at a rate of 5% per hour
(3) maintained RH at 95% for five hours
(4) reduced to 0% RH at a rate of 5% per hour
(5) maintained RH at 0% for five hours
(6) raised RH to 95% at a rate of 5% per hour
(7) maintained RH at 95% for five hours
(8) reduced to 0% RH at a rate of 5% per hour
(9) maintained RH at 0% for five hours
(10) raised to 50% RH at a rate of 5% per hour
(11) maintained RH at 50% for about one hour
as §1

With `CN1c2c([nH]c(N)nc2=O)NC[C@@H]1CNc1ccc(C(=O)N[C@@H](CCC(=O)O)C(=O)O)cc1` as the compound, how does the “solubility in water (in words)” value ([1]; water) read?
The value was “poorly soluble”.

Which results are given for `CN1c2c(nc(N)[nH]c2=O)NC[C@@H]1CNc1ccc(C(=O)N[C@@H](CCC(=O)O)C(=O)O)cc1.OCCN1CCOCC1`?
water content (TG-FTIR) (Water content by TG-FTIR): about 8.9 % w/w; change of water content ([2]; DVS, range from 20% to 80% relative humidity): about 2%; water adsorption compared with the crystalline polymorphic forms of the calcium salt ([2]; under changing relative humidity): significantly lower

Which aqueous solubility [1] does the source give for `CN1c2c([nH]c(N)nc2=O)NC[C@@H]1CNc1ccc(C(=O)N[C@@H](CCC(=O)[O-])C(=O)[O-])cc1.[Ca+2]` [Form I] here?
Its aqueous solubility is “about 10 mg/ml”.

With `CN1c2c([nH]c(N)nc2=O)NC[C@@H]1CNc1ccc(C(=O)N[C@@H](CCC(=O)[O-])C(=O)[O-])cc1.[Ca+2]` [calcium salt (Form III)] as the compound, how does the aqueous solubility [1] read?
The aqueous solubility was “about 2.5 mg/ml”.
